Data as given in US20250066411A1, “GL[…] FOR L-SIGN” (priority 2022, published 2025).

Assays:
Assay type in all cases: binding
L-SIGN ECD [1] = molecular target: T1, L-SIGN ECD (Homo sapiens, UniProt Q9H2X3); assay: SPR competition experiments on a sensorchip functionalized with SARS-CoV-2 Spike protein, L-SIGN ECD co-injected; conditions: for IC50: 20 μM L-SIGN ECD co-injected, Spike HexaPro surface, 25° C., read-out: IC50 (inhibition of L-SIGN); for selectivity for L-SIGN over DC-SIGN: SPR competition, L-SIGN vs DC-SIGN ECD; for inhibits the L-SIGN receptor better than D-mannose: relative to D-mannose IC50
T1 construct: towards the extra cellular domain (ECD) of the DC-SIGN and L-SIGN receptors
T1 sequence (Q9H2X3 71-399 limits assumed): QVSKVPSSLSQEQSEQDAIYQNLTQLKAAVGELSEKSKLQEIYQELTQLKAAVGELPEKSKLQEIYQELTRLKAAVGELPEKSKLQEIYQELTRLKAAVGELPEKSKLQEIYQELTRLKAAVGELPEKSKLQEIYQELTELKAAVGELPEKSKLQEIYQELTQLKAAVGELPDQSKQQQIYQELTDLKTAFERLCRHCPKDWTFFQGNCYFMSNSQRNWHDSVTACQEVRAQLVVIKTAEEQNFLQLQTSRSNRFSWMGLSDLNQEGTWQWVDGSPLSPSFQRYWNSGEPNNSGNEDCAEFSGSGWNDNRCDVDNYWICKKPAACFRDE

L-SIGN ECD [2] = molecular target: T1, L-SIGN ECD; assay: Isothermal Titration Calorimetry (ITC) with L-SIGN ECD
Experimental: The interaction of compound 106a with the L-SIGN receptor was also confirmed by Isothermal Titration Calorimetry (ITC) experiments (FIG. 2).
These experiments were carried out on a MicroCal PEAQ-ITC apparatus, at 25° C., in buffer A (25 mM Tris pH 8, 150 mM NaCl, 4 mM CaCl2). L-SIGN ECD (172 μM) was titrated with consecutive 2 μL injections of a 2 mM solution of compound 106a in Calcium buffer (30 μL of 20 mM compound 106a+270 μL of Calcium buffer).
The analysis was performed in triplicate and the graphs shown in FIG. 2 (which report, respectively, Differential Power (DP) vs. time, and ΔH vs. molar ratio) are representative of the average of the three experiments.

L-SIGN ECD [3] = molecular target: T1, L-SIGN ECD; assay: SPR direct interaction experiments on oriented immobilized biotinylated ECD; conditions: read-out: apparent Kd for L-SIGN; Steady State Affinity model, ligands 2 nM to 500 nM
Experimental: For this experiment the extracellular domain (ECD) of DC-SIGN and L-SIGN were immobilized onto the SPR surface in an oriented manner, by their N-terminus, taking advantage of biotine/streptavidin interaction. To generate DC/L SIGN specifically biotinylated at the N-terminus, 3 glycine residues at the N-terminus of the protein were added by site directed mutagenesis in order to allow a sortaging procedure. The biotinylated versions of DC/L-SIGN ECDs (Biot-ECDs) were prepared by sortaging as described in Achilli, S., Monteiro, J. T., Serna, S., Mayer-Lambertz, S., Thépaut, M., Le Roy, A., Ebel, C., Reichardt, N.-C., Lepenies, B., Fieschi, F., and Vives, C. (2020) […], Artificial Tetrameric Lectins: A Tool to Screen Ligand and Pathogen Interactions. IJMS 21, 1-19 using a commercial synthetic biotinylated peptide,
To generate the oriented SPR surfaces, the flow cells were functionalized with Streptavidin in 10 mM Acetate buffer pH 4 and the remaining activated groups were blocked with 1 M ethanolamine pH 8. After blocking, the flow cells were treated with 100 μL of 10 mM HCl to remove non-specifically bound proteins and 100 μL of 50 mM NaOH/1M NaCl to expose surface to regeneration protocol. Priming of the surface was done using the running buffer (25 mM Tris pH 8, 150 mM NaCl, 4 mM CaCl2), 0.05% Tween). […] Surfaces are ready for interaction. […]

| Structure (SMILES) | IC50 (L-SIGN ECD [1]) [µM] | selectivity for L-SIGN over DC-SIGN (L-SIGN ECD [1]) | further results |
| --- | --- | --- | --- |
| NCc1cn(C2C(OCCCl)OC(CO)C(O)C2O)nn1 (centres unmarked) [Compound 103, reference compound] | 278 | – | – |
| N=C(N)NCc1cn([C@H]2C(OCCCl)OC(CO)[C@@H](O)[C@@H]2O)nn1 (some centres unmarked) [Compound 106a] | 24 | up to 58 fold | Kd (L-SIGN ECD [2]): 12.8 ± 1.5 µM; enthalpy contribution (ΔH) of the interaction (L-SIGN ECD [2]; ITC): very favorable; stoichiometry of interaction between ligand and L-SIGN receptor (L-SIGN ECD [2]; ITC): 1,13; inhibits the L-SIGN receptor better than D-mannose (L-SIGN ECD [1]): 80 times; inhibits the L-SIGN receptor better than compound 103 (L-SIGN ECD [1]; relative to compound 103 IC50): 11 times |
| OCC1O[C@H](OCCCl)C(n2cc(CNc3nc4ccccc4[nH]3)nn2)C(O)[C@@H]1O (some centres unmarked) [Compound 113] | 48 | more selective against DC-SIGN | – |
| OCC1O[C@H](OCCCl)C(n2cc(CNc3ncc[nH]3)nn2)C(O)[C@@H]1O (some centres unmarked) [Compound 115] | 15 | up to 75 fold | – |
| OCC1O[C@H](OCCCl)C(n2cc(CNc3ncc[nH]3)nn2)C(O)[C@@H]1O (some centres unmarked) [Compound 119] | 18 | – | inhibits the L-SIGN receptor better than D-mannose (L-SIGN ECD [1]): over two orders of magnitude |
| N=C(N)NCc1cn(C2C(OCCn3cc(-c4cc(OCCOCCO)c(C#Cc5cc(OCCOCCO)c(C#Cc6cc(OCCOCCO)c(-c7cn(CCOC8OC(CO)C(O)C(O)C8n8cc(CNC(=N)N)nn8)nn7)cc6OCCOCCO)cc5OCCOCCO)cc4OCCOCCO)nn3)OC(CO)C(O)C2O)nn1 (centres unmarked) [Compound 133] | – | – | Kd (L-SIGN ECD [3]): 0.052 µM |
| N=C(N)NCc1cn(C2C(OCCn3cc(COCCOCCOCCn4cc(-c5cc(OCCOCCO)c(C#Cc6cc(OCCOCCO)c(C#Cc7cc(OCCOCCO)c(-c8cn(CCOCCOCCOCc9cn(CCOC%10OC(CO)C(O)C(O)C%10n%10cc(CNC(=N)N)nn%10)nn9)nn8)cc7OCCOCCO)cc6OCCOCCO)cc5OCCOCCO)nn4)nn3)OC(CO)C(O)C2O)nn1 (centres unmarked) [Compound 135] | – | – | Kd (L-SIGN ECD [3]): 0.025 µM |
| OCC1O[C@H](OCCCl)C(n2cc(CNC3=NCCCN3)nn2)C(O)[C@@H]1O (some centres unmarked) [Compound 139] | 12 | up to 94 fold | – |
| COc1ccc2[nH]c(NCc3cn(C4C(O)[C@H](O)C(CO)O[C@@H]4OCCCl)nn3)nc2c1 (some centres unmarked) [Compound 146] | 52 | – | – |
| O=C[C@@H](O)[C@@H](O)[C@H](O)[C@H](O)CO [D-mannose, reference compound] | 1940 | – | – |
